# Test results from PMC3673949, “Small Molecule R1498 as a Well-Tolerated and Orally Active Kinase Inhibitor for Hepatocellular Carcinoma and Gastric Cancer Treatment via Targeting Angiogenesis and Mitosis Pathways” (PLoS ONE, 2013).
# pIC50: −log10 of the molar value.
# Tests used:
# BEL-7404 xenograft = assay: Xenograft efficacy study; assay type: in vivo, BALB/C nu/nu nude mice
# Method: Tumor cells were inoculated into the right flank of BALB/C nu/nu female nude mice (5∼6 weeks, 16∼18 g, obtained from Sino-British SIPPR/BK Lab. Animal Ltd, Shanghai, China) at optimal density based on our in-house validation study. After the tumor was established and reached 100∼150 mm^3, the mice were randomized into ten mice per group and received treatment according to the schedule. The tumor growth was recorded three times a week with the measurement of length (L) and width (W) by caliper, and calculated as tumor volume (TV, mm^3) = 0.5*L*W*W (mm). […] The tumor regression of individual mouse was defined - the tumor volume at the end was less than the tumor volume when treatment was initiated.
# [1] = system: gastric cancer cell lines; assay: Cell proliferation assay (CCK-8, 72 h); assay type: cell-based; details: Homo sapiens, gastric cancer cell line panel, read-out: overall mean IC50
# Method: (§1) Each cell line was seeded in a 96-well tissue culture plate (Corning, NY) at a predetermined density in 180 µL complete medium, attached overnight and treated by compound for another 72 h. Then the medium was discarded and replaced with 10% CCK-8 (Dojindo, Kumamoto, Japan) in complete medium, then incubated the plates for another 2 h. The OD450 was measured with SpectraMAX 190 spectrophotometer (MDS, Sunnyvale, CA). A background absorbance of ODblank was subtracted from all wells.
# [2] = system: nasopharyngeal carcinoma cell lines; assay: Cell proliferation assay (CCK-8, 72 h); assay type: cell-based; details: Homo sapiens, nasopharyngeal carcinoma cell line panel, read-out: overall mean IC50
# Method: as §1
# [3] = system: hepatocellular carcinoma cell lines; assay: Cell proliferation assay (CCK-8, 72 h); assay type: cell-based; details: Homo sapiens, hepatocellular carcinoma cell line panel, read-out: overall mean IC50
# Method: as §1
# phospho-histone H3 (S10) = assay: Immunofluorescence / western blot of Aurora B activity marker in SGC-7901; assay type: cell-based, human
# Method: Cell lysate was prepared in RIPA buffer and quantified by the bicinchoninic acid (BCA) method (Pierce, Rockford, IL). Thirty micrograms of protein per sample was loaded onto a 4∼12% NuPAGE® Novex SDS gel (Invitrogen). The protein was transferred by an iBlot® dry blotting device (Invitrogen) onto nitrocellulose membranes. After blocking nonspecific binding with TBS/Tween20 (0.1%) (TBS/T) containing 5% non-fat milk for 1 h at room temperature, the membrane was incubated in phospho-Aurora A (Thr288) (C39D8) rabbit monoclonal antibody (Cell Signaling Technology, CST #3079, Beverly, MA) or phospho-Histone H3 (Ser10) rabbit polyclonal antibody (CST#9701) (1∶1000 in TBS/T containing 3% bovine serum albumin (BSA), and gently shaken at 4°C overnight. The membrane was washed with TBS/T three times to remove the unbound antibody, then incubated with the secondary antibody (HRP-conjugated goat anti-mouse IgG or goat anti-rabbit IgG, 1∶10000, KangChen Biotech, Shanghai, China) for 1 h at room temperature, respectively. Protein bands were visualized with an enhanced chemiluminescence (ECL) kit (Pierce, Rockford, IL). […]
smiles,measurement,setting,value
COc1ccc2c(c1)C(c1ccccc1Cl)=Nc1c(n[nH]c1C)N2 [R1498],Final TGI%,"BEL-7404 xenograft; BEL-7404, 12.5 mg/kg twice a day per oral gavage, day of study termination (Table S2)",90%
same,Body weight changes%,"BEL-7404 xenograft; BEL-7404, 12.5 mg/kg twice a day per oral gavage, before vs after treatment",-1.9%
same,Tumor Regression,"BEL-7404 xenograft; BEL-7404, 12.5 mg/kg twice a day per oral gavage, mice with regression/group",0/10
same,Final TGI%,"BEL-7404 xenograft; BEL-7404, 3.125 mpk, bid, PO",47%
same,Final TGI%,"BEL-7404 xenograft; BEL-7404, 6.25 mpk, bid, PO",67%
same,pIC50,[1],5.12
same,pIC50,[2],4.52
same,pIC50,[3],5.11
same,phospho-histone H3 (S10) (immunofluorescence),"phospho-histone H3 (S10); SGC-7901, 5 µM, 24 h",decreased sharply
same,phosphorylation of phospho-histone H3 (S10) (western blot),"phospho-histone H3 (S10); SGC-7901 synchronized with nocodazole, various concentrations, acute treatment",decreased in a concentration-dependent manner
